Test results as given in the supplement of paper PMC13380429.

Key:
Settings in all cases: 72 h
Caco-2 [1] = assay: cell viability relative to DMSO; higher = less toxic
Calu-3 [2] = assay: as above
HepG2 [3] = assay: as above
U2OS [4] = assay: as above
Vero E6 [5] = assay: as above
Caco-2 [6] = assay: relative viability EC50 (midpoint between 100% and the lowest measured viability); higher = less toxic
Calu-3 [7] = assay: as above
HepG2 [8] = assay: as above
U2OS [9] = assay: as above
Vero E6 [10] = assay: as above
Caco-2 [11] = assay: drug sensitivity score (DSS) for viability; higher = more toxic; extreme values may be limits of the assay
Calu-3 [12] = assay: as above
HepG2 [13] = assay: as above
U2OS [14] = assay: as above
Vero E6 [15] = assay: as above

| Structure (SMILES) | cell viability (Caco-2 [1]; 1 nM) [%] | cell viability (Caco-2 [1]; 10 nM) [%] | cell viability (Caco-2 [1]; 100 nM) [%] | cell viability (Caco-2 [1]; 1000 nM) [%] | cell viability (Caco-2 [1]; 10000 nM) [%] | cell viability (Calu-3 [2]; 1 nM) [%] | cell viability (Calu-3 [2]; 10 nM) [%] | cell viability (Calu-3 [2]; 100 nM) [%] | cell viability (Calu-3 [2]; 1000 nM) [%] | cell viability (Calu-3 [2]; 10000 nM) [%] | cell viability (HepG2 [3]; 1 nM) [%] | cell viability (HepG2 [3]; 10 nM) [%] | cell viability (HepG2 [3]; 100 nM) [%] | cell viability (HepG2 [3]; 1000 nM) [%] | cell viability (HepG2 [3]; 10000 nM) [%] | cell viability (U2OS [4]; 1 nM) [%] | cell viability (U2OS [4]; 10 nM) [%] | cell viability (U2OS [4]; 100 nM) [%] | cell viability (U2OS [4]; 1000 nM) [%] | cell viability (U2OS [4]; 10000 nM) [%] | cell viability (Vero E6 [5]; 1 nM) [%] | cell viability (Vero E6 [5]; 10 nM) [%] | cell viability (Vero E6 [5]; 100 nM) [%] | cell viability (Vero E6 [5]; 1000 nM) [%] | cell viability (Vero E6 [5]; 10000 nM) [%] | relative viability EC50 (Caco-2 [6]) [µM] | relative viability EC50 (Calu-3 [7]) [µM] | relative viability EC50 (HepG2 [8]) [µM] | relative viability EC50 (U2OS [9]) [µM] | relative viability EC50 (Vero E6 [10]) [µM] | drug sensitivity score (Caco-2 [11]) | drug sensitivity score (Calu-3 [12]) | drug sensitivity score (HepG2 [13]) | drug sensitivity score (U2OS [14]) | drug sensitivity score (Vero E6 [15]) |
| --- | --- | --- | --- | --- | --- | --- | --- | --- | --- | --- | --- | --- | --- | --- | --- | --- | --- | --- | --- | --- | --- | --- | --- | --- | --- | --- | --- | --- | --- | --- | --- | --- | --- | --- | --- |
| COc1cc(CN(CCN)C(=O)c2cccs2)ccc1OCc1ccccc1 [M8-B] | 89.5 | 98.4 | 101 | 95.6 | 89.1 | 103 | 89.1 | 108 | 99.7 | 98.5 | 99.8 | 96.5 | 91.1 | 110 | 96.2 | 95.1 | 97.6 | 102 | 95.7 | 95.4 | 94.8 | 94.1 | 97.2 | 98 | 102 | > 10 | > 10 | > 10 | > 10 | > 10 | 0.1 | 0 | 0 | 0 | 0 |
| C=CCn1c(=O)c2cnc(Nc3ccc(N4CCN(C)CC4)cc3)nc2n1-c1cccc(C(C)(C)O)n1 [MK-1775] | 106 | 99.4 | 96.1 | 35.4 | 25.9 | 108 | 93.4 | 70.8 | 50.9 | 28.8 | 99 | 89.5 | 91.2 | 33.3 | 10.2 | 102 | 95.7 | 97.6 | 21.3 | 5.8 | 100 | 94.7 | 94.1 | 57.4 | 14.2 | 0.399 | 0.218 | 0.466 | 0.49 | 0.981 | 12.4 | 13.1 | 13.8 | 14.7 | 9.7 |
| O=C(O)Cn1nnc(-c2cc(N3CCC(Oc4cc(F)ccc4Br)CC3)no2)n1 [MK-8245] | 101 | 106 | 99.5 | 102 | 94.8 | 102 | 108 | 97.7 | 90.8 | 96.5 | 109 | 95.8 | 88.3 | 88.8 | 76.1 | 103 | 102 | 96.2 | 101 | 98.6 | 98.3 | 94.8 | 98.8 | 92.2 | 86.3 | > 10 | > 10 | > 10 | > 10 | > 10 | 0 | 0 | 2.2 | 0 | 0.1 |
